According to the NIST ThermoML archive (doi:10.1021/je700096m):

Experiment: xn = mol fraction of the nth substance listed
Conditions: 298.15 K, Liquid

CCCCCl [1-chlorobutane] + CC(=O)N(C)C
mass density [kg/m3]
Conditions | x2 = 0.0967 | x2 = 0.2105 | x2 = 0.2984 | x2 = 0.4019 | x2 = 0.499 | x2 = 0.5947 | x2 = 0.6992 | x2 = 0.7997 | x2 = 0.9015
100 kPa | 885.6 | 891.8 | 896.7 | 902.5 | 908.1 | 913.3 | 919.2 | 924.7 | 930.4
2000 kPa | 887.5 | 893.6 | 898.4 | 904.1 | 909.6 | 914.8 | 920.6 | 925.9 | 931.6
4000 kPa | 889.5 | 895.5 | 900.1 | 905.8 | 911.2 | 916.2 | 922.1 | 927.3 | 932.9
6000 kPa | 891.4 | 897.2 | 901.9 | 907.45 | 912.7 | 917.8 | 923.4 | 928.7 | 934.1
8000 kPa | 893.3 | 899.1 | 903.6 | 909 | 914.2 | 919.2 | 924.8 | 930 | 935.5
10000 kPa | 895.3 | 900.9 | 905.3 | 910.9 | 915.8 | 920.7 | 926.2 | 931.3 | 936.7
11900 kPa | – | – | – | 912.3 | – | – | – | – | –
12000 kPa | 897.1 | 902.6 | 907 | – | 917.3 | 922.1 | 927.6 | 932.6 | 937.9
13900 kPa | – | – | – | 913.9 | – | – | – | – | –
14000 kPa | 898.9 | 904.4 | 908.6 | – | 918.8 | 923.5 | 929 | 933.8 | 939
15900 kPa | – | – | – | – | – | – | – | 935.1 | –
16000 kPa | 900.6 | 906.1 | 910.2 | 915.4 | 920.2 | 924.8 | 930.3 | – | 940.3
17900 kPa | 902.3 | 907.6 | – | – | – | – | – | 936.2 | –
18000 kPa | – | – | 911.7 | 916.9 | 921.6 | 926.2 | 931.5 | – | 941.5
20000 kPa | 904.2 | 909.3 | – | – | – | – | 932.9 | 937.7 | 942.6
20100 kPa | – | – | 913.5 | 918.5 | 923.1 | 927.6 | – | – | –
